Measurements reported in patent US20120149625A1, “Detergent Composition” (Novozymes A/S, priority 2009, published 2012).
Like-named read-outs stand apart in the source and are kept apart here. Residues, ends and D or L forms follow the SMILES beside them. *: point of attachment. Cbz = O=C(OCc1ccccc1)*

Tests used:
Savinase [1] = molecular target: T1, Savinase (Lederbergia lenta, UniProt P29600); experiment: AMSA laundry detergency, powder detergent, various inhibitors (Example 1); details: 30 nM protease, 40° C., 15° dH
T1 sequence (P29600 1-269): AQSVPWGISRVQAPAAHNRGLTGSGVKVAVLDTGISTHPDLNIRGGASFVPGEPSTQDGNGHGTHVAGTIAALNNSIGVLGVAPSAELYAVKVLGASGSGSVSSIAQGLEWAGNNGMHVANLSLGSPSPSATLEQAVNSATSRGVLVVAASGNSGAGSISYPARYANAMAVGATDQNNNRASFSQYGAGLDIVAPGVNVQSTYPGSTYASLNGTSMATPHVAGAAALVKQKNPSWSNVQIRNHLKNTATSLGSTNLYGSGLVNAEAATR

Savinase variant S99SE = Savinase variant S99SE (Lederbergia lenta, UniProt P29600, INS97E); details: Powder Detergent 2 at 2.5 g/L, 30 nM Savinase variant S99SE, 20° C., 15° dH
Protease PD138 = experiment: Washing test in commercial liquid detergents (Example 4); details: Liquid detergent Commercial 1; inhibitor:protease molar ratio 5:1; 20 min, 20° C., 15° dH
Protocol: (§1) Washing tests were made in detergents with a protease and an inhibitor. Washing conditions were 20 minutes washing at 20° C. and 15° dH. The protease was Savinase at 30 nM. The inhibitor was inhibitor Z-GAY-H at various molar ratios. The results are shown as detergency with the inhibitor relative to detergency at the same conditions without the inhibitor:
(§2) Two commercial liquid detergents purchased in England were tested with inhibitor:protease molar ratio of 5:1. Protease 10R is described in WO 88/03947. Protease PD138 is described in […]

Protease 10R = experiment: as above; details: Liquid detergent Commercial 1; inhibitor:protease molar ratio 5:1; 20 min, 20° C., 15° dH
Protocol: as §1, §2

Alcalase [2] = molecular target: T2, Alcalase (Bacillus licheniformis, UniProt P00780); experiment: AMSA laundry detergency, powder detergent, various inhibitors (Example 1); details: 30 nM protease, 40° C., 15° dH, inhibitor dosage 5, None = 100%
T2 construct: purchased Novozymes A/S
T2 sequence (P00780 106-379): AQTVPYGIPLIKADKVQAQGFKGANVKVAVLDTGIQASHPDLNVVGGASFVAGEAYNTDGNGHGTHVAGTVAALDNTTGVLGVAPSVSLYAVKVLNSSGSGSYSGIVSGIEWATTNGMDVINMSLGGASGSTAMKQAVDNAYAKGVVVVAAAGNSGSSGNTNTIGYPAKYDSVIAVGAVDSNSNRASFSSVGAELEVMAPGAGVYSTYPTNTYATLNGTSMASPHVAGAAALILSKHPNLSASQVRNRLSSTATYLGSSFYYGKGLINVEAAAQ

Savinase [3] = molecular target: T1, Savinase; experiment: AMSA laundry detergency, laundry liquid model detergent, various inhibitors (Example 2); details: 30 nM Savinase, 20° C., 15° dH, inhibitor dosering 5, None = 100%
Protocol: Model detergents and test materials for laundry were as follows:
After washing the textiles were flushed in tap water and dried.
Detergency was determined with various inhibitors in the laundry liquid model detergent with 30 nM protease (Savinase). Washing was done at 20° C. and water hardness 15° dH with test swatches EMPA117EH.

Savinase [4] = molecular target: T1, Savinase; experiment: biochemical; details: substrate SucAAPF-pNA, 0,1M TRIS pH 9.0, 25° C., [E]0=6E-09 M, read-out: inhibition constant Ki
[5] = molecular target: Savinase variant Y167A + R170S + A194P (Lederbergia lenta, UniProt P29600, A188P/R164S/Y161A); details: Powder Detergent 2 at 2.5 g/L, 30 nM Savinase variant Y167A + R170S + A194P, 20° C., 15° dH
Savinase [6] = molecular target: T1, Savinase; experiment: Washing test with protease and inhibitor at various molar ratios (Example 4); details: 20° C., 15° dH
Protocol: Washing tests were made in detergents with a protease and an inhibitor. Washing conditions were 20 minutes washing at 20° C. and 15° dH. […] The inhibitor was inhibitor Z-GAY-H at various molar ratios. The results are shown as detergency with the inhibitor relative to detergency at the same conditions without the inhibitor:
The detergent was a powder detergent with the following composition at 2.5 g/L.
20.05 g Na-citrate dehydrate
The liquid detergent described under the AMSA assay was used.
The powder detergent described under the AMSA assay was used.

Alcalase [7] = molecular target: T2, Alcalase; experiment: as above; details: 30 nM Alcalase, 20° C., 15° dH
[8] = inhibitor:protease molar ratio 500, None = 100%
[9] = molar ratio not given, None = 100%
[10] = inhibitor:protease molar ratio 5, None = 100%

Chain of Savinase variant S99SE (P29600 other isoform, or with tags, fused parts or gaps INS97E): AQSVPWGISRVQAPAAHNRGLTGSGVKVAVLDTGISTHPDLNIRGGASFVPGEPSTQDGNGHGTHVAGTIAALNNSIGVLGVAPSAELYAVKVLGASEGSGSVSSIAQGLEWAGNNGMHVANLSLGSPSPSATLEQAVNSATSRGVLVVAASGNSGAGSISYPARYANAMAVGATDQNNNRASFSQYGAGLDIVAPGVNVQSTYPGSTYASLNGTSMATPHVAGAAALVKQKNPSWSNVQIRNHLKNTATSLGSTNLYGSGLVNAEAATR
Chain of Savinase variant Y167A + R170S + A194P (P29600 whole entry Y161A/R164S/A188P): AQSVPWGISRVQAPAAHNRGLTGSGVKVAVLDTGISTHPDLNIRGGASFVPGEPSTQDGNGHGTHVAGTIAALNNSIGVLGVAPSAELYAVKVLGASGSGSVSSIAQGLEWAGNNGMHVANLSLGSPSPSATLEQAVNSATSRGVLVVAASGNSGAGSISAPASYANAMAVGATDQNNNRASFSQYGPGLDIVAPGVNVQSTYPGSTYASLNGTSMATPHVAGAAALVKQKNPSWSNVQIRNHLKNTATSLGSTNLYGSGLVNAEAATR

## O=Cc1ccc(B(O)O)cc1 [Inhibitor 4-FPBA, 4-formyl-phenyl-boronic acid]
Savinase [1]; [8]
  CS-37 % performance: 128%
  EMPA117EH % performance: 107%
Savinase [1]; [9]
  CS-37 % performance: 137%
  EMPA117EH % performance: 111%

## C[C@H](NC(=O)CNC(=O)OCc1ccccc1)C(=O)N[C@H](C=O)Cc1ccc(O)cc1 [Z-GAY-H] (Cbz-Gly-Ala-Tyr-aldehyde)
Savinase variant S99SE; molar ratio 1.5
  detergency with the inhibitor relative to without: 100%
Savinase variant S99SE; molar ratio 3
  detergency with the inhibitor relative to without: 103%
Savinase variant S99SE; molar ratio 5
  detergency with the inhibitor relative to without: 106%
Protease PD138
  Detergency increase: 107%
Protease 10R
  Detergency increase: 107%
Savinase [1]; [10]
  CS-37 % performance: 242%
  EMPA117EH % performance: 117%
Alcalase [2]
  CS-37 % performance: 147%
  EMPA117EH % performance: 108%
Savinase [3]
  EMPA117EH % performance increase: 114%
Savinase [4]
  Ki: 7.4 nM
[5]; molar ratio 1.5
  detergency with the inhibitor relative to without: 100%
[5]; molar ratio 3
  detergency with the inhibitor relative to without: 107%
[5]; molar ratio 5
  detergency with the inhibitor relative to without: 107%
Savinase [6]; Liquid Detergent (AMSA model), 30 nM Savinase, molar ratio 1.5
  detergency with the inhibitor relative to without: 114%
Savinase [6]; Liquid Detergent (AMSA model), 30 nM Savinase, molar ratio 3
  detergency with the inhibitor relative to without: 109%
Savinase [6]; Liquid Detergent (AMSA model), 30 nM Savinase, molar ratio 5
  detergency with the inhibitor relative to without: 108%
Savinase [6]; Powder Detergent 1 (AMSA model), 10 nM Savinase, molar ratio 0.5
  detergency with the inhibitor relative to without: 112%
Savinase [6]; Powder Detergent 1 (AMSA model), 10 nM Savinase, molar ratio 1
  detergency with the inhibitor relative to without: 108%
Savinase [6]; Powder Detergent 1 (AMSA model), 10 nM Savinase, molar ratio 1.5
  detergency with the inhibitor relative to without: 111%
Savinase [6]; Powder Detergent 1 (AMSA model), 10 nM Savinase, molar ratio 2
  detergency with the inhibitor relative to without: 121%
Savinase [6]; Powder Detergent 1 (AMSA model), 10 nM Savinase, molar ratio 3
  detergency with the inhibitor relative to without: 118%
Savinase [6]; Powder Detergent 1 (AMSA model), 10 nM Savinase, molar ratio 5
  detergency with the inhibitor relative to without: 118%
Savinase [6]; Powder Detergent 1 (AMSA model), 10 nM Savinase, molar ratio 10
  detergency with the inhibitor relative to without: 122%
Savinase [6]; Powder Detergent 1 (AMSA model), 10 nM Savinase, molar ratio 15
  detergency with the inhibitor relative to without: 116%
Savinase [6]; Powder Detergent 1 (AMSA model), 10 nM Savinase, molar ratio 20
  detergency with the inhibitor relative to without: 104%
Savinase [6]; Powder Detergent 1 (AMSA model), 10 nM Savinase, molar ratio 30
  detergency with the inhibitor relative to without: 101%
Savinase [6]; Powder Detergent 1 (AMSA model), 10 nM Savinase, molar ratio 50
  detergency with the inhibitor relative to without: 95%
Savinase [6]; Powder Detergent 1 (AMSA model), 30 nM Savinase, molar ratio 0.5
  detergency with the inhibitor relative to without: 106%
Savinase [6]; Powder Detergent 1 (AMSA model), 30 nM Savinase, molar ratio 1
  detergency with the inhibitor relative to without: 105%
Savinase [6]; Powder Detergent 1 (AMSA model), 30 nM Savinase, molar ratio 1.5
  detergency with the inhibitor relative to without: 107%
Savinase [6]; Powder Detergent 1 (AMSA model), 30 nM Savinase, molar ratio 2
  detergency with the inhibitor relative to without: 108%
Savinase [6]; Powder Detergent 1 (AMSA model), 30 nM Savinase, molar ratio 3
  detergency with the inhibitor relative to without: 105%
Savinase [6]; Powder Detergent 1 (AMSA model), 30 nM Savinase, molar ratio 5
  detergency with the inhibitor relative to without: 110%
Savinase [6]; Powder Detergent 1 (AMSA model), 30 nM Savinase, molar ratio 10
  detergency with the inhibitor relative to without: 107%
Savinase [6]; Powder Detergent 1 (AMSA model), 30 nM Savinase, molar ratio 15
  detergency with the inhibitor relative to without: 99%
Savinase [6]; Powder Detergent 1 (AMSA model), 30 nM Savinase, molar ratio 20
  detergency with the inhibitor relative to without: 95%
Savinase [6]; Powder Detergent 1 (AMSA model), 30 nM Savinase, molar ratio 30
  detergency with the inhibitor relative to without: 83%
Savinase [6]; Powder Detergent 1 (AMSA model), 30 nM Savinase, molar ratio 50
  detergency with the inhibitor relative to without: 80%
Savinase [6]; Powder Detergent 2 at 2.5 g/L, 30 nM Savinase, molar ratio 1.5
  detergency with the inhibitor relative to without: 132%
Savinase [6]; Powder Detergent 2 at 2.5 g/L, 30 nM Savinase, molar ratio 3
  detergency with the inhibitor relative to without: 140%
Savinase [6]; Powder Detergent 2 at 2.5 g/L, 30 nM Savinase, molar ratio 5
  detergency with the inhibitor relative to without: 134%
Alcalase [7]; Liquid Detergent (AMSA model), molar ratio 1.5
  detergency with the inhibitor relative to without: 145%
Alcalase [7]; Liquid Detergent (AMSA model), molar ratio 3
  detergency with the inhibitor relative to without: 169%
Alcalase [7]; Liquid Detergent (AMSA model), molar ratio 5
  detergency with the inhibitor relative to without: 146%
Alcalase [7]; Liquid Detergent (AMSA model), molar ratio 7.5
  detergency with the inhibitor relative to without: 149%
Alcalase [7]; Liquid Detergent (AMSA model), molar ratio 10
  detergency with the inhibitor relative to without: 147%
Alcalase [7]; Powder Detergent 2 at 2.5 g/L, molar ratio 3
  detergency with the inhibitor relative to without: 103%
Alcalase [7]; Powder Detergent 2 at 2.5 g/L, molar ratio 5
  detergency with the inhibitor relative to without: 113%
Alcalase [7]; Powder Detergent 2 at 2.5 g/L, molar ratio 7.5
  detergency with the inhibitor relative to without: 116%
Alcalase [7]; Powder Detergent 2 at 2.5 g/L, molar ratio 10
  detergency with the inhibitor relative to without: 119%
